In patent US20260297031A1, “HYDROXYLAMINE-BASED BCR-ABL1 INHIBITORS FOR TREATMENT OF CANCER” (University of Georgia Research Foundation, Inc., priority 2023, published 2026):
“Also recorded” adds a separate entry of the source.

How the values were obtained:
[1] = tested on: P-glycoprotein (P-gp) and/or breast cancer resistance protein (BCRP); settings: cited from earlier work
[2] = Metabolic stability in human hepatocytes; settings: for remaining at 0.5 min / remaining at 0.5 h / remaining at 1 h / remaining at 2 h: hepatocytes
Experimental: Metabolic Stability in Hepatocytes (Independently Performed by Pharmaron Inc., Ninqbo, CN)
After thawing was complete, hepatocytes were transferred into a 50 mL conical tube containing thawing medium and the tube was then placed into a centrifuge and spun at 100 g for 10 min. […] Using AO/PI staining, cells were counted to determine the viable cell density. […] Subsequently, 2 μL of the 100 μM test compounds or control compound solutions was transferred into the respective wells of the 96-well non-coated plate to start the reaction. […] Aliquots of 100 μL of the supernatant were then diluted by 100 μL of ultra-pure water, and the mixture was analyzed by LC-MS/MS.
All calculations were carried out using Microsoft Excel. Peak areas were determined from extracted ion chromatograms. The in-vitro half-life (t1/2) of parent compound was determined by regression of the percent parent disappearance vs. time curve.

[3] = molecular target: T1, BCR-ABL1 M351T (Homo sapiens, UniProt P00519, M351T); assay: KinaseProfiler radiometric kinase assay, BCR-ABL1 M351T; type: biochemical; settings: [ATP] = 10 μM; mean of n = 2
T1 construct: BCR (fusion partner, as the printed name BCR-ABL1 says)

[4] = molecular target: T2, BCR-ABL1 Q252H (Homo sapiens, UniProt P00519, Q252H); assay: KinaseProfiler radiometric kinase assay, BCR-ABL1 Q252H; type: biochemical; settings: [ATP] = 10 μM; mean of n = 2
T2 construct: BCR (fusion partner, as the printed name BCR-ABL1 says)

[5] = molecular target: cSRC (Homo sapiens, UniProt P12931); assay: KinaseProfiler radiometric kinase assay, cSRC wt; type: biochemical; settings: for IC50: [ATP] = 10 μM, mean of n = 2
[6] = molecular target: mutant BCR-ABL1; assay: KinaseProfiler radiometric kinase assay, mutant BCR-ABL1 kinases as a group; type: biochemical, human
Excerpt: Biochemical Human RTK Kinase Enzymatic Radiometric Assay, KinaseProfiler (Independently Performed by Eurofins Cerep SA, FR)

[7] = Plasma protein binding by equilibrium dialysis, human plasma; type: in vitro ADME; settings: human plasma; for % Unbound: 360 min, 5 µM
Experimental: Plasma Protein Binding by Equilibrium Dialysis (Independently Performed by Pharmaron Inc., Ninqbo, CN)
Initially, 1 mM solutions of test compounds and the control compound (Ketoconzaole) were prepared in DMSO. After this, dialysis membranes were soaked in ultrapure water for 60 min to separate strips, followed by 20% aq. ethanol for 20 min, and finally in a dialysis buffer for 20 min. […] After this, 597 μL of blank plasma solution followed by 3 μL of the working solutions of either test compounds or control compound were added to a new plastic plate or separate plastic tube and the solutions were vortexed at 1,000 rpm for 2 min. Immediately after this, 50 μL of spiked plasma solution suspension was transferred to a 96-well plate to act as T=0 control. The remaining samples were treated in the same manner, whereby all remaining spiked plasma solutions were added to the incubator for the duration of the study.
Cells were then loaded with 120 μL of the plasma samples and dialyzed against an equal volume of dialysis buffer (PBS). […] At the end of incubation, the lid was removed and 50 μL of post-dialysis samples were removed from both buffer and plasma solution chambers into a separate 96-well plate for analysis. The plasma solutions (50 μL) were then added to the buffer samples along with an equal volume of PBS (50 μL) to the collected plasma solution samples. The plate was shaken at 1,000 rpm for 2 min and 400 μL of acetonitrile containing an appropriate internal standard was added to precipitate protein and release compound. The samples were then vortexed at 1,000 rpm for an additional 10 min followed by centrifugation at 3,220 g for 30 min. Supernatant (250 μL) was then added to a new 96-well plate and centrifuged again at 3,220 g for 30 min and 100 μL of this supernatant was then added to a new 96-well plate for analysis. The samples were analyzed by LC-MS/MS and 100 μL of distilled water was added to each sample prior to analysis.
Concentrations of test compounds and control compound in buffer and plasma solution chambers was determined and percentages of test compounds and control compound bound using the following equations (mean of n=2 replicates): […]

[8] = tested on: Caco-2 cells; assay: Caco-2 permeability; settings: Papp (b − a/a − b)
Experimental: Caco-2 Permeability (Independently Performed by Pharmaron Inc., Ningbo, CN)
To each well of the Transwell insert and reservoir were added 50 μL and 25 mL of cell culture medium, respectively. […] Following this, the Caco-2 plate was removed from the incubator and the monolayer washed twice with pre-warmed HBSS (10 mM HEPES, pH 7.4).
To determine the rate of drug transport in the apical to basolateral direction, 125 μL of the working solution of either test compounds or control compounds was added to the Transwell insert (apical compartment) and a 50 μL sample was immediately transported from the apical compartment to 200 μL of acetonitrile containing internal standard (100 nM alprazolam, 200 nM Caffeine and 100 nM tolbutamide) in a new 96-well plate as the initial donor sample (A-B). The sample was then vortexed at 1,000 rpm for 10 min. The receiver plate (basolateral compartment) wells were then filled with 235 μL of transport buffer. To determine the rate of drug transport in the basolateral to apical direction, 285 μL of the working solution of either test compounds or control compounds was added to the receiver plate wells (basolateral compartment) and a 50 μL sample was immediately transferred from the basolateral compartment to 200 μL of acetonitrile containing internal standard in a new 96-well plate as the initial donor sample (B-A). The sample was vortexed at 1,000 rpm for 10 min. The Transwell insert (apical compartment) was then filled with 75 μL of transport buffer and the apical to basolateral direction and the basolateral to apical direction were done at the same time. […] After incubation, 50 μL samples from donor sides (apical compartment for Ap→BI flux, and basolateral compartment for BI→Ap) and receiver sides (basolateral compartment for Ap→BI flux, and apical compartment for BI→Ap) were transferred to wells of a new 96-well plate, followed by the addition of 200 μL acetonitrile containing internal standard. All samples were vortexed for 10 min and then centrifuged at 3,220 g for 40 min. A 150 μL aliquot of the supernatant was then mixed with an appropriate volume of ultra-pure water prior to LC-MS/MS analysis.
(§1) To monitor for monolayer integrity, Lucifer yellow leakage was determined after the 2 h transport period. This began by preparing a stock solution of Lucifer yellow in DMSO which was diluted with HBSS (10 mM HEPES, pH 7.4.) to reach a final concentration of 100 μM. To each Transwell insert (apical compartment) was then added 100 μL of the Lucifer yellow solution, followed by filling the wells in the receiver plate (basolateral compartment) with 300 μL of HBSS (10 mM HEPES, pH 7.4).
(§2) The efflux ratio was determined using the following equation: […]

[9] = tested on: MDCKII-MDR1 cells; assay: MDCKII-MDR1 permeability; settings: MDCKII-MDR1
Experimental: MDCKII-MDR1 Permeability (Independently Performed By: Pharmaron Inc., Ninqbo, CN)
To each well of the Transwell insert and reservoir were added 50 μL and 25 mL of cell culture medium, respectively.
To determine the rate of drug transport in the apical to basolateral direction, 125 μL of the working solution of either test compounds or control compounds was added to the Transwell insert (apical compartment) and a 50 μL sample was immediately transferred from the apical compartment to 200 μL of acetonitrile containing internal standard (100 nM alprazolam, 200 nM caffeine, and 100 nM tolbutamide) in a new 96-well plate as the initial donor sample (A-B). The sample was then vortexed at 1,000 rpm for 10 min. The receiver plate (basolateral compartment) wells were then filled with 235 μL transport buffer. To determine the rate of drug transport in the basolateral to apical direction, 285 μL of the working solution of either test compounds or control compounds was added to the receiver plate (basolateral compartment) wells and a 50 μL of sample was immediately transferred from the basolateral compartment to 200 μL of acetonitrile containing internal standard in a new 96-well plate as the initial donor sample (B-A). The sample was vortexed for 10 min at 1,000 rpm. The Transwell insert (apical compartment) was then filled with 75 μL of transport buffer and the apical to basolateral direction and the basolateral to apical direction were done at the same time. […] After incubation, 50 μL samples from donor sides (apical compartment for Ap→BI flux, and basolateral compartment BI→Ap) and receiver sides (basolateral compartment for Ap→BI flux, and apical compartment for BI→Ap) were transferred to wells of a new 96-well plate, followed by the addition of 200 μL acetonitrile containing internal standard. […] An aliquot of 100 μL of the supernatant was mixed with an appropriate volume of ultra-pure water before LC-MS/MS analysis.
as §1, with “and” for “which was”
as §2

[10] = molecular target: hERG channel (Homo sapiens, UniProt Q12809); parameters: expressed in transfected cells; host or cells: HEK 293; settings: cited from earlier work
[11] = Metabolic stability in mouse hepatocytes; type: in vitro ADME; settings: read-out: Remaining Percentages
Experimental: All calculations were carried out using Microsoft Excel. Peak areas were determined from extracted ion chromatograms.

cSRC, sequence (P12931 whole entry): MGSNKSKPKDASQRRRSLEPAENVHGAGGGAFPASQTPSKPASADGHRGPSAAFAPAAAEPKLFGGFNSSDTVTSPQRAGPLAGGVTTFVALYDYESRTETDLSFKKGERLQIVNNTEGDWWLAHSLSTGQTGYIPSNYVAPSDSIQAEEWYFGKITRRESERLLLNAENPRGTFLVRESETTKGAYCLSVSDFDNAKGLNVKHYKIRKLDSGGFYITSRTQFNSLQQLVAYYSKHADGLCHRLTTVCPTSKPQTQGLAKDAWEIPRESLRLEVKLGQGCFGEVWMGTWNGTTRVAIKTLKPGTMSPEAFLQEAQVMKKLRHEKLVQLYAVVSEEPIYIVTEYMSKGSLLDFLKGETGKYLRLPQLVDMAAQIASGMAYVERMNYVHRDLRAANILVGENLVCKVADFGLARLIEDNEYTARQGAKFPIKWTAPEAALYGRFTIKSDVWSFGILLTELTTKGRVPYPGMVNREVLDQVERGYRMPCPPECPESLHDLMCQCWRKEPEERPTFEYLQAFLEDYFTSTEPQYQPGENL
hERG channel, sequence (Q12809 whole entry): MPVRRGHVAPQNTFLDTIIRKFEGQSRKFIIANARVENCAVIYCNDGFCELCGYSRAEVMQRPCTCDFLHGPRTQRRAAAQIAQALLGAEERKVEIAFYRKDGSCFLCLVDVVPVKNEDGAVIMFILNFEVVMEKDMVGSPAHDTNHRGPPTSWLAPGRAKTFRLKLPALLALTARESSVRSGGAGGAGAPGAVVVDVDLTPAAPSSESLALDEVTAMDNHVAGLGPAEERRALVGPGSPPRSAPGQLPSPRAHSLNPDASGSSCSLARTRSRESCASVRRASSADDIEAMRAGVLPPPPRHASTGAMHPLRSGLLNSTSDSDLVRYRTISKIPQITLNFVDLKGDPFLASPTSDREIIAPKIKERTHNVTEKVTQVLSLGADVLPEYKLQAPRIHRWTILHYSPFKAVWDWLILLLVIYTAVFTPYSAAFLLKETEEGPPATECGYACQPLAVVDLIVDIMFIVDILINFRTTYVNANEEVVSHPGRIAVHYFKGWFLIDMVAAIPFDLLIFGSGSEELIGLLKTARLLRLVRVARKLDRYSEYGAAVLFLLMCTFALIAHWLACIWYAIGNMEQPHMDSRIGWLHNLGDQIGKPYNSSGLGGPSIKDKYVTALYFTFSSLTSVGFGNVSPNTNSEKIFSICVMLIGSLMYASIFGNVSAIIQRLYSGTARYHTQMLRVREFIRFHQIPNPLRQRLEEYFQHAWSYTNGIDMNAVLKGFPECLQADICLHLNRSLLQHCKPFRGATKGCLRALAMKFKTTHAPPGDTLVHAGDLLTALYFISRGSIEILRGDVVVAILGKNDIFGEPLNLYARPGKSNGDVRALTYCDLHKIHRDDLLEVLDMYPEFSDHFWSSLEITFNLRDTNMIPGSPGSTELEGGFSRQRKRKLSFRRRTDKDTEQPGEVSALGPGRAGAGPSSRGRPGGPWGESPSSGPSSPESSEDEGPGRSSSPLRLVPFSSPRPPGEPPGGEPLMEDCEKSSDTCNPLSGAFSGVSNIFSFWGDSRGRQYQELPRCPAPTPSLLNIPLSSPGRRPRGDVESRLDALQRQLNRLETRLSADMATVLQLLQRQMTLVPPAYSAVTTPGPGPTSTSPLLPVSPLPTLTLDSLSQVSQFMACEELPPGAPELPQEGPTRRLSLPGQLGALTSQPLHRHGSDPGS

O=C(Nc1ccc(OC(F)(F)Cl)cc1)c1cnc(N2CC[C@@H](O)C2)c(-c2ccn[nH]2)c1 [Asciminib, asciminib]
efflux transporter substrate (background) [1]: P-gp substrates; also recorded: potent substrates for efflux transporters

COc1cc2c(Nc3cccc(Cl)c3F)c(C#N)cnc2cc1OCCON1CCN(C)CC1 [Compound 16, 4-((3-Chloro-2-flurophenyl)amino)-6-methoxy-7-(2-((4-methylpiperazin-1-yl)oxy)ethoxy)quinoline-3-carbonitrile]
remaining at 0.5 min [2]: 100%
remaining at 0.5 h [2]: 66.9%
remaining at 1 h [2]: 45.1%
remaining at 2 h [2]: 18.6%

COc1cc2c(Nc3cccc(OC)c3F)c(C#N)cnc2cc1OCCON1CCN(C)CC1 [Compound 18, 4-((2-Fluoro-3-methoxyphenyl)amino)-6-methoxy-7-(2-((4-methylpiperazin-1-yl)oxy)ethoxy)quinoline-3-carbonitrile]
IC50 [3]: 24 nM
IC50 [4]: 30 nM
IC50 [5]: 34 nM
IC50 ([6]; read-out: IC50 against (imatinib resistant / relevant) mutant BCR-ABL1 kinases, group of mutants): ≥ 15 nM
% Unbound [7]: 12.97%
remaining at 0.5 min [2]: 100%
remaining at 0.5 h [2]: 95.7%
remaining at 1 h [2]: 80.4%
remaining at 2 h [2]: 54.9%
Efflux Ratio [8]: 12.36

COc1cc(Nc2c(C#N)cnc3cc(OCCON4CCN(C)CC4)c(OC)cc23)ccc1Cl [Compound 19]
IC50 [3]: 1 nM
IC50 [5]: 2 nM
stability in hepatocytes, in words [2]: good stability in human hepatocytes
remaining at 0.5 min [2]: 100%
remaining at 0.5 h [2]: 68.1%
remaining at 1 h [2]: 50.2%
remaining at 2 h [2]: 25.5%
efflux (P-gp), in words [9]: reduced efflux ratios
permeability in MDCKII-MDR1 cells, in words [9]: markedly improved permeability

COc1cc2c(Nc3ccc(Cl)c(OC)n3)c(C#N)cnc2cc1OCCON1CCN(C)CC1 [Compound 21, 4-((5-Chloro-6-methoxypyridin-2-yl)amino)-6-methoxy-7-(2-((4-methylpiperazin-1-yl)oxy)ethoxy)quinoline-3-carbonitrile]
cSRC kinase activity, in words [5]: excellent activity
BCR-ABL1 kinase activity, in words [6]: excellent activity

Cc1nc(Nc2ncc(C(=O)Nc3c(C)cccc3Cl)s2)cc(N2CCN(CCO)CC2)n1 [Dasatinib, dasatinib]
efflux transporter substrate (background) [1]: P-gp substrates; also recorded: potent substrates for efflux transporters
hERG liability, in words (background) [10]: reduced affinity for the hERG ion channel

CC(=O)N1CCN(c2ccc(OCC3COC(Cn4ccnc4)(c4ccc(Cl)cc4Cl)O3)cc2)CC1 (stereo not shown) [Ketoconazole]
% Unbound [7]: 0.80%
fraction unbound at 6 h, 5 µM ([7]; read-out: % Bound (converted)): 0.008

Cc1cn(-c2cc(NC(=O)c3ccc(C)c(Nc4nccc(-c5cccnc5)n4)c3)cc(C(F)(F)F)c2)cn1 [Nilotinib, nilotinib]
hERG liability, in words (background) [10]: inhibition of the human Ether-b-go-go-Related Gene (hERG) potassium ion channel

COc1ccc(CCN(C)CCCC(C#N)(c2ccc(OC)c(OC)c2)C(C)C)cc1OC (stereo not shown) [Verapamil, reference compound]
remaining at 0.5 h [2]: 35.6%
remaining at 1 h [2]: 17.7%
remaining at 2 h [2]: 4.83%
remaining at […] ([11]; 15 min): 16.7%
remaining at 0.5 h ([11]; 30 min): 4.39%
remaining at 1 h ([11]; 60 min): 1.24%
